The values below come from patent publication US12226424B2, “Target protein degradation compounds, their anti-tumor use, their intermediates and use of intermediates” (ShanghaiTech University, priority 2018, dated 2025).

In experiment [1] the target is T1, c-ABL (Homo sapiens, UniProt P00519). Description: Western-blot degradation of c-ABL in K562 cells. The following applies: 24 h.
For experiment [2], the target named is T2, BCR-ABL (Homo sapiens, UniProt P00519). Kind of experiment: Western-blot half-degradation concentration (DC50) / degradation of BCR-ABL in K562 cells. The following applies: 24 h.
The target in experiment [3] is T1, c-ABL. Description: Western-blot detection of c-ABL protein degradation (FIGS. 1-15). The class given is cell-based.
The target of experiment [4] is T2, BCR-ABL. Kind of experiment: Western-blot detection of BCR-ABL protein degradation (FIGS. 1-15). The class given is cell-based.
A further experiment concerns the target T3, ER protein (Homo sapiens, UniProt P03372).
T3 construct: detect the expression of ER protein in T-47D cells; endogenous in cells; host or cells: T-47D
T3 sequence (P03372 1-595): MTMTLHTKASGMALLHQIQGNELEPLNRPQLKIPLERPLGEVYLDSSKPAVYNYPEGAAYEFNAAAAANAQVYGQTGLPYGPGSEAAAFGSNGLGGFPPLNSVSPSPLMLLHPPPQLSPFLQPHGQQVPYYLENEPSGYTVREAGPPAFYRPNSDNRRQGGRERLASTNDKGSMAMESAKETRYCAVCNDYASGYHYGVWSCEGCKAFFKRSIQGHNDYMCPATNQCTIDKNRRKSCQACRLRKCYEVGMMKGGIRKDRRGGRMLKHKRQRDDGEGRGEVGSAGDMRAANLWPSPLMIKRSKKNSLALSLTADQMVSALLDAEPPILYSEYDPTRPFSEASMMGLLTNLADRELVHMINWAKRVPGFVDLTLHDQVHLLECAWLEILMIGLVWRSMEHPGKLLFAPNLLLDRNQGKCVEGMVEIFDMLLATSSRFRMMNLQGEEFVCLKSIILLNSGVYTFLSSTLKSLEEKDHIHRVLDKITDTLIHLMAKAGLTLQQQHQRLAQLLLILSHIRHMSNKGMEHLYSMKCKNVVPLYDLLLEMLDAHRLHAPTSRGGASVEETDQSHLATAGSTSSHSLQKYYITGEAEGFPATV
Description: Western blot half degradation concentration (DC50) of ER protein in T-47D cells. The class given is cell-based. The note with it: 24 h, read-out: DC50 (nM)/T-47D cell line. On the procedure:
ER positive cells T-47D cells (human breast cancer cells) were purchased from the Cell Bank of the Chinese Academy of Sciences;
The cells used in this present disclosure were cultured in a 37° C. incubator containing 5% CO2. The complete cell culture medium was RPMI 1640 medium with 10% fetal bovine serum, and the final concentrations of penicillin and streptomycin were 100 U/mL, respectively. All cells were tested negative for mycoplasma with mycoplasma detection kit before the experiment.
Western Blot Determination of the Half Degradation Concentration (DC50) of the PROTAD Compounds on Target Proteins
The PROTAD compounds of the present disclosure were tested at 5 concentration of 1 nM, 10 nM, 50 nM, 100 nM, 500 nM, respectively, or 5 concentration gradients of 0.04 nM, 0.2 nM, 1 nM, 10 nM, 50 nM, and DMSO and commercial parent inhibitor groups (tamoxifen, toremifene) were set as negative and positive controls at the same time. After the drug treatment for 24 h, cells were washed twice with PBS, and lyzed by adding 50 μL of SDS lysate to each well for lysis on ice for 5 min.

T1 sequence (P00519 whole entry): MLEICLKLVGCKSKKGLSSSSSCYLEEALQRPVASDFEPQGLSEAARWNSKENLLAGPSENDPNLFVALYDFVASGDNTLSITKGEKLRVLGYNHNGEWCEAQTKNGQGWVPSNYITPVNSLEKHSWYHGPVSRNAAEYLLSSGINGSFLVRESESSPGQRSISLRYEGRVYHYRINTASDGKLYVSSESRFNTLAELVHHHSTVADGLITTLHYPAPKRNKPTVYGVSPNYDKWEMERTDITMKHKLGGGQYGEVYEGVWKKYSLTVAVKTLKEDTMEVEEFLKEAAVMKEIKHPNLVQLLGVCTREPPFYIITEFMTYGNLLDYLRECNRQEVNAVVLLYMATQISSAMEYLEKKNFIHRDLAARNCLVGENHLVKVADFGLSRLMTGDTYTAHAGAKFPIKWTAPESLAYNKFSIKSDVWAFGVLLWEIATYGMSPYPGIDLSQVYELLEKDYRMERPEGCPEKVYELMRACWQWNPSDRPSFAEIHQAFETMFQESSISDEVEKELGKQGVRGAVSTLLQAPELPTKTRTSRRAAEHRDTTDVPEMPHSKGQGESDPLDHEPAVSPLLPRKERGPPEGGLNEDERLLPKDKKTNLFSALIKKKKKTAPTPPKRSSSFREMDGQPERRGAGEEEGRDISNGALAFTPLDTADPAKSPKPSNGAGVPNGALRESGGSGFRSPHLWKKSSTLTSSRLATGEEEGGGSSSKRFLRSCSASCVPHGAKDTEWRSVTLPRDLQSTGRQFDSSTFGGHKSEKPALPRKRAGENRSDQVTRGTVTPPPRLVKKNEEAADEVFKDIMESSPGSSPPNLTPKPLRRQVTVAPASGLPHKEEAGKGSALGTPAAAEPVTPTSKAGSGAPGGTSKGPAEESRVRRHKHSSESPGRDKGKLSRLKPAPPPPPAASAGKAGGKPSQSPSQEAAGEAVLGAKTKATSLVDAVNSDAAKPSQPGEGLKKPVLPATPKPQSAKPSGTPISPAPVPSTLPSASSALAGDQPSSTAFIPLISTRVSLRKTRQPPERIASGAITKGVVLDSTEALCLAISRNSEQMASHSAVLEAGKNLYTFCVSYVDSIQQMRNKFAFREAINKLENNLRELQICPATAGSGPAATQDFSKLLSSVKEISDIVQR
T2 sequence (P00519 with tags, fused parts or gaps): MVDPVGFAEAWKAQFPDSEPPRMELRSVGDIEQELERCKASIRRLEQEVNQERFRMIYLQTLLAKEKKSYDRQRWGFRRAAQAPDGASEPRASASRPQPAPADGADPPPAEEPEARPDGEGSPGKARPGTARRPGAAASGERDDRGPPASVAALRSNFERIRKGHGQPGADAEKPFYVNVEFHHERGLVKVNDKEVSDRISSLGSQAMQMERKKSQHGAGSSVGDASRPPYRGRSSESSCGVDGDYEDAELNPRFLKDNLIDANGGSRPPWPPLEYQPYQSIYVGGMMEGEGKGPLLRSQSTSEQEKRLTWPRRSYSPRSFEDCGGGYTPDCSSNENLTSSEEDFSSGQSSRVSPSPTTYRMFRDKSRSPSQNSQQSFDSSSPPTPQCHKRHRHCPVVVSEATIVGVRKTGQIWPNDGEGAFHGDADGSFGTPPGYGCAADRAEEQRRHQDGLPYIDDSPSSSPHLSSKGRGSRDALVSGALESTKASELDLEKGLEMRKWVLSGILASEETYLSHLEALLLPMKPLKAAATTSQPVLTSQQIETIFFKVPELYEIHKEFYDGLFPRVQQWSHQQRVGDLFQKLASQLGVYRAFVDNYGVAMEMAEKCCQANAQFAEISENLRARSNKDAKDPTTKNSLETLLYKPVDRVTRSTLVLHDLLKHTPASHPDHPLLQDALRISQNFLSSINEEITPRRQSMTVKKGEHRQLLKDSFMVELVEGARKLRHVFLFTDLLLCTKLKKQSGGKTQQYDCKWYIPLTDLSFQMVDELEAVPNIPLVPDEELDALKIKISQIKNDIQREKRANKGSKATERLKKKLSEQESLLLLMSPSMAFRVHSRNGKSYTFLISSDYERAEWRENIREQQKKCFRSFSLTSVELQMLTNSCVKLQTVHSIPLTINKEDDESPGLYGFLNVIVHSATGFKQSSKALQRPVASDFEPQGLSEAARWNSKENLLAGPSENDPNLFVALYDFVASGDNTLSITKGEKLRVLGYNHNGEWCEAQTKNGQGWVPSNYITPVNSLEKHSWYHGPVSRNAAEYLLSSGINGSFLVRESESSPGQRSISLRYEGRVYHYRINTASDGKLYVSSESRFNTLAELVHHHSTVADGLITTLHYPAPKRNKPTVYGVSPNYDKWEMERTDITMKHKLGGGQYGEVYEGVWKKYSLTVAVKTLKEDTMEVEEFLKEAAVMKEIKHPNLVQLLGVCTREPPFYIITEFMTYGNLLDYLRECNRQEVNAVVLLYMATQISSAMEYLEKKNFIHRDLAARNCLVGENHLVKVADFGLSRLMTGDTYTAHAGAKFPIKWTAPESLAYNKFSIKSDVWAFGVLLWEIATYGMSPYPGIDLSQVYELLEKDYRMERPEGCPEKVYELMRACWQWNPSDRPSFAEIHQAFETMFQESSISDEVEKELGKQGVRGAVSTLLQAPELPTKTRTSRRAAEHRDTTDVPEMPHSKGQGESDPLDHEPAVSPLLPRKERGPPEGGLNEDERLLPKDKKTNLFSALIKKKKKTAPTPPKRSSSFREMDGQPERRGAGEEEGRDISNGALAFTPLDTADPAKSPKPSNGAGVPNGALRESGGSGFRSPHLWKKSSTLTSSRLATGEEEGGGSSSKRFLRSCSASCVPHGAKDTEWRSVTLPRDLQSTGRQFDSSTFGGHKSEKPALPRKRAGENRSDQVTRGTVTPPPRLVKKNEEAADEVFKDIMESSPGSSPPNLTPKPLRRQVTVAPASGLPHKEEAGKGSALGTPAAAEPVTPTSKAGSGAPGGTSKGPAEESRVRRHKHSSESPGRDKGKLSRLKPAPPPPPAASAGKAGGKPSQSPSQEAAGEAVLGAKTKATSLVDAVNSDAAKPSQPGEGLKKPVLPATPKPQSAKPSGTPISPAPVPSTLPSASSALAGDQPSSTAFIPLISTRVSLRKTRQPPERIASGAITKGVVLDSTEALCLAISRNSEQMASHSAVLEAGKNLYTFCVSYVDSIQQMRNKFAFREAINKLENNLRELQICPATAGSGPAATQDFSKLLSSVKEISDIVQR

On to `Cc1nc(Nc2ncc(C(=O)Nc3c(C)cccc3Cl)s2)cc(N2CCN(C(=O)CNc3cccc4c3C(=O)N(C3CCC(=O)NC3=O)C4=O)CC2)n1` (stereo not drawn) [SIAIS151072, N-(2-chloro-6-methylphenyl)-2-((6-(4-((2-(2,6-dioxopiperidin-3-yl)-1,3-dioxoisoindolin-4-yl)aminoacetyl)piperazin-1-yl)-2-methylpyrimidin-4-yl)amino)thiazole-5-carboxamide], for which the “degradation of c-ABL protein (Western-blot)” value on c-ABL [1] is “significantly weaker ability to degrade BCR-ABL and c-ABL proteins”. On BCR-ABL [2], the “degradation of BCR-ABL protein (Western-blot)” value is “significantly weaker ability to degrade BCR-ABL and c-ABL proteins”. Moreover, at c-ABL [3], the “ability to degrade c-ABL protein (Western-blot, in words)” value was “significantly weaker ability to degrade”. Moreover, the “ability to degrade BCR-ABL protein (Western-blot, in words)” value at BCR-ABL [4] was “significantly weaker ability to degrade”.

Consider `CCC(=C(c1ccc(O)cc1)c1ccc(OCCNC(=O)CCCCCCSc2cccc3c2C(=O)N(C2CCC(=O)NC2=O)C3=O)cc1)c1ccc(O)cc1` (stereo not drawn) [SIAIS208170, N-(2-(4-(1,2-bis(4-hydroxyphenyl)but-1-en-1-yl)phenoxy)ethyl)-7-((2-(2,6-dioxopiperidin-3-yl)-1,3-dioxoisoindolin-4-yl)thio)heptanamide], for which, at ER protein, the DC50 was 10 nM.

Take `CCC(=C(c1ccc(O)cc1)c1ccc(OCCNC(=O)CCCCCCSc2cccc3c2CN(C2CCC(=O)NC2=O)C3=O)cc1)c1ccc(O)cc1` (stereo not drawn) [SIAIS208171, N-(2-(4-(1,2-bis(4-hydroxyphenyl)but-1-en-1-yl)phenoxy)ethyl)-7-((2-(2,6-dioxopiperidin-3-yl)-1-oxoisoindolin-4-yl)thio)heptanamide]: at ER protein, the DC50 came out at 10 nM.
